# Source: patent US11185523B2, “Use of bipolar trans carotenoids with chemotherapy and radiotherapy for treatment of cancer” (DIFFUSION PHARMACEUTICALS LLC, priority 2016, dated 2021)
# Read-outs that look alike come from different tables or passages of the source.
# Key:
# newly diagnosed GBM = conditions: cited from earlier work
# recurrent GBM = conditions: cited from earlier work
# DMBA breast tumors = test: DMBA breast tumor model, TSC before chemotherapy; type: in vivo; conditions: TSC and control groups
# Procedure: Breast tumors were induced through injection of DMBA (dimethylbenzantracene) under the mammary tissue of female rats. The tumors usually grow in most rats and reach measurable conditions after 10 days.
# The following studies used a method in which a 3-mL syringe is filled first with 1 ml of DMBA dissolved in sunflower seed oil (20 mg DMBA per mL of solution). Following that, 2 mL's of air are pulled into the syringe. The needle of the syringe is then inserted under the mammary tissue near a hind leg and the air in the syringe is carefully injected. The injection of the air forms a “pocket”, and then the 1 mL of DMBA solution is injected into that pocket.
# After the tumors have grown up (about 10 days), their volumes are estimated by measuring the diameter (d) and the length (L) of the football-shaped tumors formed. This is done using calipers after feeling the tumor with one's fingers. To estimate the volume of the tumor, you multiply the diameter squared times the length and divide by 2: Tumor volume (in mm3)={(d in mm)^22}×(L in mm)
# TSC or saline (controls) was injected in the tail vein of the rats at a volume of 0.1 mL and a dose of 0.25 mg/kg TSC about 1-2 hours before the chemotherapeutic agent was injected intraperitoneally (IP) in the rats.
# In order to understand which dosages are efficacious when used with chemotherapy, a rat model of breast tumors was used. The model involves injecting the chemical dimethylbenzanthracene (DMBA) under the mammary gland of a female Sprague-Dawley rat. After a few days, tumors begin to grow and can be measured by feeling the football-shaped tumor under the skin and measured using calipers.
# [1] = test system: metastatic pancreatic cancer; conditions: treatment naive patients with metastatic cancer; nab-paclitaxel plus gemcitabine vs gemcitabine; cited from earlier work
# [2] = test system: metastatic pancreatic cancer; conditions: metastatic disease, erlotinib with gemcitabine vs gemcitabine alone, cited from earlier work; for one-year survival rate: P=0.023; for median overall survival: P=0.038
# pancreatic cancer = conditions: cited from earlier work; for overall survival: Folfirinox regimen vs gemcitabine
molecule,measurement,setting,value
bevacizumab,"symptom burden, quality of life, neurocognitive function","newly diagnosed GBM; human, in vivo","increased symptom burden, a worse quality of life, and a decline in neurocognitive function"
same,progression free survival,"newly diagnosed GBM; radiation, TMZ and bevacizumab vs only radiation and TMZ, both studies",increase in progression free survival
same,overall survival,"newly diagnosed GBM; radiation, TMZ and bevacizumab vs only radiation and TMZ, two clinical trials",no difference in overall survival
same,overall six-month survival,"recurrent GBM; Phase 2 study, recurrent GBM",54%
same,six-month progression-free survival,"recurrent GBM; Phase 2 study, recurrent GBM, historical 9-15%",25%
same,six-month progression-free survival,"recurrent GBM; another Phase 2 study, lower dose but higher frequency",42.6%
"Nc1ccn([C@@H]2O[C@H](CO)[C@@H](O)C2(F)F)c(=O)n1 [gemcitabine, reference compound]",mortality,"DMBA breast tumors; gemcitabine 5 mg/kg IP on days 0, 3",Most rats in both groups were dead on Day 7
same,mortality,"DMBA breast tumors; gemcitabine 10 mg/kg IP on days 0, 3",Most rats in both groups were dead on Day 6
same,overall survival,[1],6.7 months
same,one-year survival rate,[2],17%
same,median overall survival,[2],5.91 months
same,overall survival,pancreatic cancer,6.8 months
C#Cc1cccc(Nc2ncnc3cc(OCCOC)c(OCCOC)cc23)c1 [erlotinib],one-year survival rate,[2],23%
same,median overall survival,[2],6.24 months
Folfirinox,overall survival,pancreatic cancer,11.1 months
same,adverse events,pancreatic cancer; Folfirinox treatment,accompanied by serious adverse events
